Reference: ChEMBL document CHEMBL5724914, “Linking interpersonal differences in gut microbiota composition and drug biotransformation activity” (2024)

Key:
[1] = The drug is tested on Z-018 corresponding to pig gut metagenome with ENA study accession number: PRJEB37062 and ENA sample accession number: ERS12561817 for biotransformation under anaerobic condition. The drug concentrations were measured over 9 timepoints collected between 0 and 24 hours of incubation by liquid-chromatography-coupled mass spectrometry (LC–MS); conditions: 2 µM
[2] = The drug is tested on WLS-077 corresponding to human gut metagenome with ENA study accession number: PRJEB37062 and ENA sample accession number: ERS12561750 for biotransformation under anaerobic condition. The drug concentrations were measured over 9 timepoints collected between 0 and 24 hours of incubation by liquid-chromatography-coupled mass spectrometry (LC–MS); conditions: 2 µM
[3] = human gut metagenome, 24 h, 2 µM
[4] = human gut metagenome, 24 h, 2 µM; remark: listed apart in the source
[5] = The drug is tested on WLS-240 corresponding to human gut metagenome with ENA study accession number: PRJEB37062 and ENA sample accession number: ERS12561773 for biotransformation under anaerobic condition. The drug concentrations were measured over 9 timepoints collected between 0 and 24 hours of incubation by liquid-chromatography-coupled mass spectrometry (LC–MS); conditions: 2 µM
[6] = The drug is tested on Z-003 corresponding to pig gut metagenome with ENA study accession number: PRJEB37062 and ENA sample accession number: ERS12561803 for biotransformation under anaerobic condition. The drug concentrations were measured over 9 timepoints collected between 0 and 24 hours of incubation by liquid-chromatography-coupled mass spectrometry (LC–MS); conditions: 2 µM
[7] = human gut metagenome, 24 h, 2 µM; remark: listed apart in the source
[8] = human gut metagenome, 24 h, 2 µM; remark: listed apart in the source
[9] = The drug is tested on Z-029 corresponding to rat gut metagenome with ENA study accession number: PRJEB37062 and ENA sample accession number: ERS12561828 for biotransformation under anaerobic condition. The drug concentrations were measured over 9 timepoints collected between 0 and 24 hours of incubation by liquid-chromatography-coupled mass spectrometry (LC–MS); conditions: 2 µM
[10] = The drug is tested on WLS-170 corresponding to human gut metagenome with ENA study accession number: PRJEB37062 and ENA sample accession number: ERS12561762 for biotransformation under anaerobic condition. The drug concentrations were measured over 9 timepoints collected between 0 and 24 hours of incubation by liquid-chromatography-coupled mass spectrometry (LC–MS); conditions: 2 µM
[11] = The drug is tested on WLS-098 corresponding to human gut metagenome with ENA study accession number: PRJEB37062 and ENA sample accession number: ERS12561754 for biotransformation under anaerobic condition. The drug concentrations were measured over 9 timepoints collected between 0 and 24 hours of incubation by liquid-chromatography-coupled mass spectrometry (LC–MS); conditions: 2 µM
[12] = The drug is tested on Z-007 corresponding to rat gut metagenome with ENA study accession number: PRJEB37062 and ENA sample accession number: ERS12561807 for biotransformation under anaerobic condition. The drug concentrations were measured over 9 timepoints collected between 0 and 24 hours of incubation by liquid-chromatography-coupled mass spectrometry (LC–MS); conditions: 2 µM
[13] = The drug is tested on Z-026 corresponding to metagenome with ENA study accession number: PRJEB37062 and ENA sample accession number: ERS12561825 for biotransformation under anaerobic condition. The drug concentrations were measured over 9 timepoints collected between 0 and 24 hours of incubation by liquid-chromatography-coupled mass spectrometry (LC–MS); conditions: 2 µM
[14] = human gut metagenome, 24 h, 2 µM; remark: listed apart in the source
[15] = The drug is tested on WLS-006 corresponding to human gut metagenome with ENA study accession number: PRJEB37062 and ENA sample accession number: ERS12561741 for biotransformation under anaerobic condition. The drug concentrations were measured over 9 timepoints collected between 0 and 24 hours of incubation by liquid-chromatography-coupled mass spectrometry (LC–MS); conditions: 2 µM
[16] = human gut metagenome, 24 h, 2 µM; remark: listed apart in the source
[17] = The drug is tested on WLS-310 corresponding to human gut metagenome with ENA study accession number: PRJEB37062 and ENA sample accession number: ERS12561785 for biotransformation under anaerobic condition. The drug concentrations were measured over 9 timepoints collected between 0 and 24 hours of incubation by liquid-chromatography-coupled mass spectrometry (LC–MS); conditions: 2 µM
[18] = human gut metagenome, 24 h, 2 µM; remark: listed apart in the source
[19] = The drug is tested on Z-027 corresponding to metagenome with ENA study accession number: PRJEB37062 and ENA sample accession number: ERS12561826 for biotransformation under anaerobic condition. The drug concentrations were measured over 9 timepoints collected between 0 and 24 hours of incubation by liquid-chromatography-coupled mass spectrometry (LC–MS); conditions: 2 µM
[20] = The drug is tested on Z-028 corresponding to mouse gut metagenome with ENA study accession number: PRJEB37062 and ENA sample accession number: ERS12561827 for biotransformation under anaerobic condition. The drug concentrations were measured over 9 timepoints collected between 0 and 24 hours of incubation by liquid-chromatography-coupled mass spectrometry (LC–MS); conditions: 2 µM
Note: call rule not given here.

SMILES	Bacterial Biotransformation [1]	Bacterial Biotransformation [2]	Bacterial Biotransformation [3]	Bacterial Biotransformation [4]	Bacterial Biotransformation [5]	Bacterial Biotransformation [6]	Bacterial Biotransformation [7]	Bacterial Biotransformation [8]	Bacterial Biotransformation [9]	Bacterial Biotransformation [10]	Bacterial Biotransformation [11]	Bacterial Biotransformation [12]	Bacterial Biotransformation [13]	Bacterial Biotransformation [14]	Bacterial Biotransformation [15]	Bacterial Biotransformation [16]	Bacterial Biotransformation [17]	Bacterial Biotransformation [18]	Bacterial Biotransformation [19]	Bacterial Biotransformation [20]
COC(=O)Nc1nc2ccc(C(=O)c3ccccc3)cc2[nH]1 [MEBENDAZOLE]	Compound metabolized	Compound metabolized	Compound NOT metabolized	Compound metabolized	Compound metabolized	Compound metabolized	Compound NOT metabolized	Compound metabolized	Compound metabolized	Compound metabolized	Compound metabolized	Compound metabolized	Compound NOT metabolized	Compound metabolized	Compound metabolized	Compound metabolized	Compound metabolized	Compound metabolized	Compound NOT metabolized	Compound NOT metabolized
COc1ccccc1OCC(O)COC(N)=O (stereo not given) [METHOCARBAMOL]	Compound NOT metabolized	Compound NOT metabolized	Compound NOT metabolized	Compound NOT metabolized	Compound NOT metabolized	Compound NOT metabolized	Compound NOT metabolized	Compound NOT metabolized	Compound NOT metabolized	Compound NOT metabolized	Compound NOT metabolized	Compound NOT metabolized	Compound NOT metabolized	Compound NOT metabolized	Compound NOT metabolized	Compound NOT metabolized	Compound NOT metabolized	Compound NOT metabolized	Compound NOT metabolized	Compound NOT metabolized
CC[C@@H](CO)NC(=O)[C@@H]1C=C2c3cccc4c3c(cn4C)C[C@H]2N(C)C1.O=C(O)/C=C\C(=O)O [METHYSERGIDE MALEATE]	Compound NOT metabolized	Compound NOT metabolized	Compound NOT metabolized	Compound NOT metabolized	Compound NOT metabolized	Compound NOT metabolized	Compound NOT metabolized	Compound NOT metabolized	Compound NOT metabolized	Compound metabolized	Compound NOT metabolized	Compound NOT metabolized	Compound NOT metabolized	Compound NOT metabolized	Compound NOT metabolized	Compound metabolized	Compound metabolized	Compound NOT metabolized	Compound NOT metabolized	Compound NOT metabolized
CCN(CC)CCNC(=O)c1cc(Cl)c(N)cc1OC [METOCLOPRAMIDE]	Compound NOT metabolized	Compound NOT metabolized	Compound NOT metabolized	Compound NOT metabolized	Compound metabolized	Compound NOT metabolized	Compound NOT metabolized	Compound NOT metabolized	Compound NOT metabolized	Compound NOT metabolized	Compound NOT metabolized	Compound NOT metabolized	Compound NOT metabolized	Compound NOT metabolized	Compound NOT metabolized	Compound NOT metabolized	Compound NOT metabolized	Compound NOT metabolized	Compound NOT metabolized	Compound NOT metabolized
Cc1ccccc1N1C(=O)c2cc(S(N)(=O)=O)c(Cl)cc2NC1C (stereo not given) [METOLAZONE]	Compound NOT metabolized	Compound NOT metabolized	Compound NOT metabolized	Compound NOT metabolized	Compound metabolized	Compound NOT metabolized	Compound metabolized	Compound NOT metabolized	Compound NOT metabolized	Compound NOT metabolized	Compound metabolized	Compound NOT metabolized	Compound metabolized	Compound metabolized	Compound NOT metabolized	Compound metabolized	Compound NOT metabolized	Compound NOT metabolized	Compound NOT metabolized	Compound NOT metabolized
